Read-outs that look alike come from different tables or passages of the source.
Molecular target: T1R1/T1R3 receptor (Felis catus, UniProt E3UMS2)
Test: cell-based
Type: cell-based
Description: HEK293 cells that stably express T1R3 and inducibly express T1R1 were exposed to transmembrane compounds alone or in combination with one or more amino acids and/or one or more nucleotides to activate the umami receptor. Activation of the T1R1/T1R3 receptor was detected by a change in intracellular calcium levels using a calcium sensitive fluorescent dye. Cells that express T1R3 but not T1R1 were used as a control. A FLIPR® Tetra or a FlexStation® 3 was used for data capture.
In each experiment, serial dilutions of up to 10 mM of the transmembrane compound were added to the T1R1/T1R3-expressing cells.

[1] = + Alanine, Table 17, read-out: EC50 + Alanine
[2] = +Alanine (20 mM), Table 18, read-out: EC50 +Alanine
[3] = EC50 + IMP, + IMP (0.2 mM), Table 17
[4] = EC50 +Alanine + IMP, +Alanine (20 mM) + IMP (0.2 mM), Table 18
[5] = EC50 +IMP, +IMP (0.2 mM), Table 18
[6] = compound alone in buffer, Table 17, read-out: EC50 + buffer (alone)
[7] = compound alone in buffer, Table 18, read-out: EC50 +buffer (alone)

Structure (SMILES) | Thres +Alanine (+ Alanine (20 nM), Table 17) [mM] | Max resp % of IMP + Alanine (+ Alanine, Table 17) | Max resp ΔF/F +Alanine (+ Alanine, Table 17) | EC50 [1] [mM] | Max resp % of ALa + IMP (+ IMP (0.2 mM), Table 17) | Thres + IMP (+ IMP (0.2 mM), Table 17) [mM] | Max resp ΔF/F +Alanine (+Alanine (20 mM), Table 18) | Thres +Alanine (+Alanine (20 mM), Table 18) [mM] | EC50 [2] [mM] | Max resp % of Ala +IMP (+IMP (0.2 mM), Table 18) | Max resp ΔF/F +IMP (+IMP (0.2 mM), Table 18) | EC50 [3] [mM] | EC50 [4] [mM] | EC50 [5] [mM] | EC50 [6] [mM] | EC50 [7] [mM] | also measured
O=C(Nc1ccccc1Br)N[C@@H]1c2ccccc2C[C@@H]1O (stereo in doubt) [1-(2-bromophenyl)-3-((1R,2S)-2-hydroxy-2,3-dihydro-1H-inden-1-yl)urea] | 3 | 33.0 % of IMP | 0.3 | > 3 | 44.9 % of ALa | 3 | 0.3 | 3 | > 3 | 44.9 % of Ala | 0.378 | > 3 | > 3 | > 3 | > 3 | > 3 | 
O=C(CN1C(=O)C(=O)N(Cc2ccccc2)C1=O)c1ccccc1 [1-benzyl-3-(2-oxo-2-phenylethyl)imidazolidine-2,4,5-trione] | 1 | 127.6 % of IMP | 1.3 |  | 135.7 % of ALa | 0.08 | 1.3 | 1 |  | 135.7 % of Ala | 1.140 |  |  |  |  |  | 
CSc1ccc(-c2nnn(Cc3ccccn3)n2)cc1 [2-((5-(4-(methylthio)phenyl)-2H-tetrazol-2-yl)methyl)pyridine] |  |  |  |  | 80.7 % of ALa | 0.1575 |  |  |  | 80.7 % of Ala | 0.678 | 0.63 | 0.27 | 0.63 |  |  | 
CCC(CC)NC(=O)c1ccc(OC)c(OC)c1 [3,4-dimethoxy-N-(pentan-3-yl)benzamide] | 0.3 | 43.9 % of IMP | 0.545 | > 10 | 81.0 % of ALa | 0.5 | 0.545 | 0.3 | > 10 | 81.0 % of Ala | 0.9975 | 2 | > 3 | 2 | > 10 | > 10 | 
CCC(CC)NC(=O)c1ccc(C)c(C)c1 [3,4-dimethyl-N-(pentan-3-yl)benzamide] | 3 | 97.8 % of IMP | 1.2150 | > 3 | 125.7 % of ALa | 0.525 | 1.2150 | 3 | > 3 | 125.7 % of Ala | 1.5475 | 2.1 | 1.7 | 2.1 | > 3 | > 3 | 
COc1ccc(C(=O)NC(C)c2ccccc2)cc1C (stereo not drawn) [4-methoxy-3-methyl-N-(1-phenylethyl)benzamide] | 3 | 41.0 % of IMP | 0.51 | > 3 | 95.6 % of ALa | 0.35 | 0.51 | 3 | > 3 | 95.6 % of Ala | 1.1775 | 1.4 | 1.2 | 1.4 | > 3 | > 3 | 
CCCC(C)NC(=O)c1ccc(OC)c(C)c1 (stereo not drawn) [4-methoxy-3-methyl-N-(pentan-2-yl)benzamide] | 0.050 | 126.0 % of IMP | 1.5650 |  | 128.9 % of ALa | 0.025 | 1.5650 | 0.050 | 0.2 | 128.9 % of Ala | 1.5875 | 0.1 | 0.03 | 0.1 | 0.4 | 0.4 | EC50 (read-out: EC50 + Alanine): 0.2 mM
CCC(CC)NC(=O)c1ccc(Br)o1 [5-bromo-N-(pentan-3-yl)furan-2-carboxamide] | 1 | 126.8 % of IMP | 1.575 | > 3 | 149.6 % of ALa | 0.3 | 1.575 | 1 | > 3 | 149.6 % of Ala | 1.8425 | > 1 | > 1 | > 1 | > 3 | > 3 | 
COc1ccc(/C=C/C(=O)NC2CCCCC2C)cc1 (stereo not drawn) [(E)-3-(4-methoxyphenyl)-N-(2-methylcyclohexyl) acrylamide] | 3 | 63.2 % of IMP | 0.785 | > 10 | 144.0 % of ALa | 0.3 | 0.785 | 3 | > 10 | 144.0 % of Ala | 1.7725 | > 3 | > 3 | > 3 | > 10 | > 10 | 
CCC(CC)NC(=O)/C=C/c1ccc(OC)cc1 [(E)-3-(4-methoxyphenyl)-N-(pentan-3-yl)acrylamide] | 0.148 | 64.1 % of IMP | 0.7 |  | 171.7 % of ALa | 0.0375 | 0.7 | 0.148 | 0.59 | 171.7 % of Ala | 1.443 | 0.15 | 0.08 | 0.15 | 0.45 | 0.45 | EC50: 0.08 ± 0.01 mM; EC50 (EC50 + Alanine + IMP, + Alanine (20 mM) + IMP (0.2 mM), Table 17): 0.08 mM; EC50 (EC50 - with IMP (0.2 mM), with 0.2 mM IMP): 0.15 ± 0.02 mM; EC50 (alone in buffer, read-out: EC50 - alone): 0.45 ± 0.01 mM; EC50 (read-out: EC50 + Alanine): 0.59 mM
COC(=O)C(NC(=O)/C=C/c1cccs1)C(C)C (stereo not drawn) [(E)-methyl 3-methyl-2-(3-(thiophen-2-yl)acrylamido)butanoate] | 10 | 9.5 % of IMP | 0.1175 |  | 59.9 % of ALa | 1 | 0.1175 | 10 |  | 59.9 % of Ala | 0.7375 | > 10 | > 10 | > 10 |  |  | 
O=C(NCCc1ccccc1)C(=O)NCc1cccnc1 [N1-phenethyl-N2-(pyridin-3-ylmethyl)oxalamide] | 1 | 30.2 % of IMP | 0.3750 | > 1 | 61.9 % of ALa | 0.1 | 0.3750 | 1 | > 1 | 61.9 % of Ala | 0.7625 | > 0.3 | 0.2 | > 0.3 | > 1 | > 1 | 
CC1CCCC(NC(=O)c2ccc3c(c2)OCO3)C1C (stereo not drawn) [N-(2,3-dimethylcyclohexyl) benzo[d][1,3]dioxole-5-carboxamide] | 3 | 18.1 % of IMP | 0.225 |  | 95.4 % of ALa | 0.275 | 0.225 | 3 | > 3 | 95.4 % of Ala | 1.175 | 1.1 | 0.6 | 1.1 | 2 | 2 | EC50 (read-out: EC50 + Alanine): > 3 mM
COc1cc(C(=O)NC(C(N)=O)c2ccccc2)cc(Cl)c1OC (stereo not drawn) [N-(2-amino-2-oxo-1-phenylethyl)-3-chloro-4,5-dimethoxybenzamide] |  |  |  |  | 49.4 % of ALa | 0.17 |  |  |  | 49.4 % of Ala | 0.415 | 0.68 | 0.75 | 0.68 |  |  | activation of T1R1/T1R3 by the compound alone (in words): failed to activate T1R1/T1R3 alone
CCCC(CCC)C(=O)Nc1ccc2c(c1)OCO2 [N-(benzo[d][1,3]dioxol-5-yl)-2-propylpentanamide] |  |  |  |  | 108.0 % of ALa | 0.0675 |  |  |  | 108.0 % of Ala | 0.908 | 0.27 | 0.09 | 0.27 | 0.35 | 0.35 | activation of T1R1/T1R3 by the compound alone (in words): agonist of T1R1/T1R3 alone

Reference: patent US20180168208A1 (priority 2014, published 2018)
